This is an account of results in US20220151989A1, “LIPOIC ACID PRODRUG” (SANTEN PHARMACEUTICAL CO., LTD., priority 2019, published 2022).

Assay [1] deals with lens elasticity. Briefly: Pharmacological Test-1: lens elasticity after instillation 3 times per day for 12 to 15 days. Format: in vivo, C57BL/6J mice. The note with it: for Lens elasticity improvement: 0.03% (w/v) solution, 2.5 μL/eye, right eye, 3 times per day for 12 to 15 days, 8-month-old mice, vs vehicle control; for lens elasticity improving effect: at a concentration of 0.03%. The procedure: The effects of compounds 1 to 4 on the lens elasticity were examined. The tests were conducted with reference to the methods described in Invest Ophthalmol Vis Sci, 57, 2851-2863, 2016.
A vehicle (aqueous solution) comprising 0.1% (w/v) of ethyl pyruvate, 0.269% (w/v) of sodium dihydrogenphosphate monohydrate (NaH2PO4.H2O), 0.433% (w/v) of di sodium hydrogenphosphate (Na2HPO4), 0.2% (w/v) of hydroxypropyl methylcellulose, 0.5% (w/v) of NaCl, 1.0% (w/v) of polyoxyl 35 castor oil (hereinafter also referred to as “CO35”), and purified water (appropriate amount) was prepared.
Each of compounds 1 to 4 was stirred with the addition of the vehicle to give a 0.03% (w/v) solution.
EV06 was stirred with the addition of the vehicle to give a 0.03% (w/v) solution. (Test method) 1) Each test sample (2.5 μL/eye) was instilled into the right eye of 8-month-old C57BL/6J mice with a Pipetman 3 times per day (around 9:00, 13:00, 17:00) for 12 to 15 days. 2) After the final instillation, the mice were euthanized by carbon dioxide inhalation, and then the eyeballs were extracted and rinsed with Hank's balanced salt solution (HESS). 3) The sclera near the optic nerve was cut with a razor, the lens was removed through the incision, and the removed lens was immersed in HESS. 4) The lens was placed on a glass slide, and an all-in-one fluorescence microscope BZ-9000 (Keyence) was used to capture an image of the lens (Image a). 5) Next, one cover glass (Corning^registered trade mark) 22×22 mm Square) was placed on the lens, and an image in which the thickness of the lens changed due to the weight was similarly captured (Image b). 6) A change in the lens diameter was calculated from the following Equation 1 wherein the lens diameter of Image a is subtracted from the lens diameter of Image b. Then, the lens elasticity improvement of each sample group compared with the vehicle control group was calculated from Equation 2 described below. The mean value of the vehicle control group was based on 5 eyes, the mean value of each of the sample groups of compounds 1 to 4 was based on 10 eyes, and the mean value of EV06 sample group was based on 9 eyes.
(§1) Change in lens diameter=Lens diameter in Image b of each test sample−Lens diameter in Image a of each test sample (Equation 1)
(§2) Lens elasticity improvement of each sample group=Mean change in lens diameter of each Test sample group−Mean change in lens diameter of Vehicle control group (Equation 2)

In assay [2] the test system is lens elasticity. Kind of assay: Pharmacological Test-2: lens elasticity at different concentrations, instillation 3 times per day for 12 to 15 days. Format: in vivo, C57BL/6J mice. The note with it: for Lens elasticity improvement: 3 times per day for 12 to 15 days, 7 to 8-month-old mice. As to the method: The effects of Compounds 1, 3, and 4 on the lens elasticity were investigated at different concentrations.
Vehicle A (aqueous solution) comprising 0.1% (w/v) of ethyl pyruvate, 0.269% (w/v) of sodium dihydrogenphosphate monohydrate (NaH2PO4.H2O), 0.433% (w/v) of disodium hydrogenphosphate (Na2HPO4), 0.2% (w/v) of hydroxypropyl methylcellulose, 0.5% (w/v) of NaCl, 0.2% (w/v) of 0035, and purified water (appropriate amount) was prepared.
Vehicle B (emulsion) comprising 0.1% (w/v) of ethyl pyruvate, 0.269% (w/v) of sodium dihydrogenphosphate monohydrate (NaH2PO4.H2O), 0.433% (w/v) of disodium hydrogenphosphate (Na2HPO4), 0.2% (w/v) of hydroxypropyl methylcellulose, 0.5% (w/v) of NaCl, 0.2% (w/v) of CO35, 0.6% benzyl benzoate, and purified water (appropriate amount) was prepared.
Vehicle C (aqueous solution) comprising 0.1% (w/v) of ethyl pyruvate, 0.269% (w/v) of sodium dihydrogenphosphate monohydrate (NaH2PO4.H2O), 0.433% (w/v) of disodium hydrogenphosphate (Na2HPO4), 0.2% (w/v) of hydroxypropyl methylcellulose, 0.5% (w/v) of NaCl, 1.0% (w/v) of 0035, and purified water (appropriate amount) was prepared.
Vehicle D (emulsion) comprising 0.1% (w/v) of ethyl pyruvate, 0.269% (w/v) of sodium dihydrogenphosphate monohydrate (NaH2PO4.H2O), 0.433% (w/v) of disodium hydrogenphosphate (Na2HPO4), 0.2% (w/v) of hydroxypropyl methylcellulose, 0.5% (w/v) of NaCl, 1.0% (w/v) of CO35, 3.0% benzyl benzoate, and purified water (appropriate amount) was prepared.
A diluent (aqueous solution) comprising 0.1% (w/v) of ethyl pyruvate, 0.269% (w/v) of sodium dihydrogenphosphate monohydrate (NaH2PO4.H2O), 0.433% (w/v) of disodium hydrogenphosphate (Na2HPO4), 0.2% (w/v) of hydroxypropyl methylcellulose, 0.5% (w/v) of NaCl, and purified water (appropriate amount) was prepared.
Compound 1 was stirred with the addition of Vehicle C to prepare a 1.5% (w/v) emulsion, and the emulsion was diluted with the diluent to give a 0.3% (w/v) emulsion. Further, the resulting 0.3% (w/v) emulsion was diluted with the diluent to give a 0.03% (w/v) emulsion. Further, the resulting 0.03% (w/v) emulsion was diluted with the diluent to give a 0.003% (w/v) emulsion.
Compound 3 was stirred with the addition of Vehicle C to give a 1.5% (w/v) solution, and the resulting solution was diluted to give a 0.3% (w/v) solution. Further, the resulting 0.3% (w/v) solution was diluted with Vehicle A to give a 0.03% (w/v) solution. Further, the resulting 0.03% (w/v) solution was diluted with Vehicle A to give a 0.003% (w/v) solution.
Compound 4 was stirred with the addition of Vehicle D to give a 1.5% (w/v) emulsion, and the resulting emulsion was diluted with the diluent to prepare a 0.3% (w/v) emulsion. Further, the resulting 0.3% (w/v) emulsion was diluted with the diluent to give a 0.03% (w/v) emulsion. Further, the resulting 0.03% (w/v) emulsion was diluted with the diluent to give a 0.003% (w/v) emulsion.
EV06 was stirred with the addition of Vehicle A to give a 1.5% (w/v) solution, which was used for comparison to the samples of Compound 1 and 3.
EV06 was sonicated with the addition of Vehicle B to give a 1.5% (w/v) emulsion, which was used for comparison to Compound 4 sample.
(Test method) 1) Each test sample (2.5 μL/eye) was instilled into the right eye of 7 to 8-month-old C57BL/6J mice with a Pipetman 3 times per day (around 9:00, 13:00 and 17:00) for 12 to 15 days. 2) After the final instillation, the mice were euthanized by carbon dioxide inhalation, and then the eyeballs were extracted and rinsed with Hank's balanced salt solution (HESS). 3) The sclera near the optic nerve was cut with a razor, the lens was removed through the incision, and the removed lens was immersed in HESS. 4) The lens was placed on a glass slide, and an all-in-one fluorescence microscope BZ-9000 (Keyence) was used to capture an image of the lens (Image a). […]

In assay [3] the test system is lens elasticity. Kind of assay: Pharmacological Test-3: lens elasticity, Compounds 5 and 6, 3 times per day for 14 days. In kind it is in vivo,  mice. The following applies: for Lens elasticity improvement: 0.03% (w/v) solution in Vehicle C, both eyes, 3 times per day for 14 days, 9-month-old mice; for lens elasticity improving effect: at a concentration of 0.03%. As to the method: The effects of Compounds 5 and 6 on the lens elasticity were investigated.
Compound 5 was stirred with the addition of Vehicle C to give a 0.03% (w/v) solution.
Compound 6 was stirred with the addition of Vehicle C to give a 0.03% (w/v) solution.
EV06 was stirred with the addition of Vehicle C to give a 0.03% (w/v) solution, which was used for comparison to the samples of Compounds 5 and 6.
1) Each test sample (2.5 μL/eye) was instilled into both eyes of 9-month-old […] mice with a Pipetman 3 times per day (around 9:00, 13:00 and 17:00) for 14 days. 2) After the final instillation, the mice were euthanized by carbon dioxide inhalation, and then the eyeballs were extracted and rinsed with Hank's balanced salt solution (HESS). 3) The sclera near the optic nerve was cut with a razor, the lens was removed through the incision, and the removed lens was immersed in HESS. 4) The lens was placed on a glass slide, and an all-in-one fluorescence microscope BZ-9000 (Keyence) was used to capture an image of the lens (Image a). 5) Next, one cover glass (Corning^(registered trade mark) 22×22 mm Square) was placed on the lens, and an image in which the thickness of the lens changed due to the weight was similarly captured (Image b). 6) A change in the lens diameter was calculated from the following Equation 1 wherein the lens diameter of Image a is subtracted from the lens diameter of Image b. Then, the lens elasticity improvement of each sample group compared with the vehicle control group was calculated from Equation 2 described below. The mean value of the vehicle control group was based on 8 eyes, and the mean value of each of the sample groups of Compounds 5 and 6 and EV06 was based on 10 eyes.
as §1, §2

In the case of `O=C(CCCC[C@@H]1CCSS1)OCCN1CCOCC1` [Compound 4, 2-Morpholinoethyl (R)-5-(1,2-dithiolan-3-yl)pentanoate], the Lens elasticity improvement with lens elasticity [1] came to 37.5 μm; with lens elasticity [2] (0.003% (w/v) sample), 25.0 μm; with lens elasticity [2] (0.03% (w/v) sample), 56.5 μm; in the assay with lens elasticity [2] (0.3% (w/v) sample), 52.9 μm. The “lens elasticity improving effect” value with lens elasticity [1] is “potent lens elasticity improving effect”. The “lens elasticity improvement compared with 1.5% EV06 group” value with lens elasticity [2] (0.03% and 0.3% sample groups) is “equivalent to or better than 1.5% EV06 group”.
For the molecule `C[N+](C)(CCOC(=O)CCCC[C@@H]1CCSS1)Cc1ccccc1.[Cl-]` [Compound 2, (R)-2-((5-(1,2-Dithiolan-3-yl)pentanoyl)oxy)-N-benzyl-N,N-dimethylethan-1-aminium chloride], in the assay with lens elasticity [1], the Lens elasticity improvement is 6.1 μm and the “lens elasticity improving effect” value is given as “did not show lens elasticity improving effect”.
Regarding `O=C(CCCC[C@@H]1CCSS1)OC(CN1CCOCC1)CN1CCOCC1` [Compound 5, 1,3-Dimorpholinopropan-2-yl (R)-5-(1,2-dithiolan-3-yl)pentanoate], in the assay on lens elasticity [3], the Lens elasticity improvement was 40.7 μm and the “lens elasticity improving effect” value is “potent lens elasticity improving effect”.
The like results for `Cc1ncc(COC(=O)CCCC[C@@H]2CCSS2)c2c1OC(C)(C)OC2` [Compound 6, (2,2,5-Trimethyl-4H-[1,3]dioxo[5,4-c]pyridin-8-yl)methyl (R)-5-(1,2-dithiolan-3-yl)pentanoate] were, in that order, 38.1 μm and “potent lens elasticity improving effect”.
